From US20220323437A1, “METHODS FOR TREATING PULMONARY ARTERIAL HYPERTENSION” (ACTELION PHARMACEUTICALS LTD, priority 2019, published 2022)

Assay: Adverse events during switch from oral to i.v. selexipag and back in subjects with stable PAH (Phase 3 study)
Format: in vivo, human
Conditions: for AE incidence: Blindness unilateral / AE incidence: Chromaturia / AE incidence: Cough / AE incidence: Dyspnoea / AE incidence: Flushing / AE incidence: Headache / AE incidence: Hypokalaemia / AE incidence: Nasopharyngitis / AE incidence: Nausea / AE incidence: Oedema peripheral / AE incidence: Rhegmatogenous retinal detachment / AE incidence: Right ventricular failure / AE incidence: Upper respiratory tract infection / Subjects with at least one AE: Period 3 + follow-up (oral selexipag, up to 37 days)
Description: This was a prospective, multicenter, open-label, single-sequence, cross-over, Phase 3 study. Based on the dose of selexipag received at study entry, subjects were allocated to one of the following groups, selexipag 200-1000 μg b.i.d. or selexipag 1200-1600 μg b.i.d. See, FIG. 1. The study comprised the following periods:
(ii) Treatment and observation period: The treatment and observation period included the following consecutive periods: • Period 1 included oral selexipag pre-treatment period for 1 day, in-hospital. This period started with intake of the morning dose of oral selexipag on Day 1 at Visit 2 and ended the following day, before initiation of the first infusion of i.v. selexipag. • Period 2 included i.v. selexipag treatment period for 36 hours [3 infusions], in-hospital. This period started in the morning of Day 2 at Visit 2 with the start of the first infusion of i.v. selexipag and ended in the evening of Day 3 at Visit 2 before the evening administration of oral selexipag. Administration of oral selexipag was interrupted during the i.v. selexipag treatment period. • Period 3 included oral selexipag post-treatment period for 7 to 11 day. This period started in the evening of Day 3 at Visit 2 with the administration of oral selexipag and ended 7-11 days later, at Visit 3.
The endpoints analyzed for Period 1, Period 2, and Period 3 and follow-up period combined included discontinuations due to prostacyclin-associated AEs, adverse events (AEs) and serious adverse events (SAEs), prostacyclin-associated AEs, AEs related to injection site reactions, and PAH-related AEs.
The endpoints analyzed for (i) Period 1, Period 2, and Period 3 and follow-up period combined (ii) Period 1 and Period 2 combined, and (iii) Period 2 and Period 3 combined included discontinuations due to prostacyclin-associated AEs, discontinuations due to any AEs, AEs and SAEs, prostacyclin-associated AEs, PAH-related AEs, change from baseline in vital signs (systolic blood pressure [SBP], diastolic blood pressure [DBP], and pulse rate) and body weight, ECG abnormalities, marked laboratory abnormalities, and change from baseline in WHO FC.
The statistical analysis was mainly descriptive, without formal hypothesis testing. Exact Pearson-Clopper CIs for the incidence of AEs were computed.

[1] = Period 2 (intravenous selexipag treatment), high dose cohort (1200-1600 μg), N = 12
[2] = Period 2 (intravenous selexipag treatment), low dose cohort (200-1000 μg), N = 8
[3] = Period 2 (intravenous selexipag treatment), total, N = 20
[4] = Period 2 (iv selexipag), total, N = 20
[5] = Period 3 (oral selexipag), high dose cohort (1200-1600 μg), N = 12
[6] = Period 3 (oral selexipag), low dose cohort (200-1000 μg), N = 8
[7] = Period 3 (oral selexipag), total, N = 20
[8] = Period 3 + Follow-up (oral selexipag), total, N = 20
[9] = high dose cohort (1200-1600 μg), N = 12
[10] = low dose cohort (200-1000 μg), N = 8

CC(C)N(CCCCOCC(=O)NS(C)(=O)=O)c1cnc(-c2ccccc2)c(-c2ccccc2)n1 [selexipag, 2-{4-[(5,6-diphenylpyrazin-2-yl)(propan-2-yl)amino]butoxy}-N-(methanesulfonyl)acetamide]
Prostacyclin-associated AE incidence: Vomiting [1]: 1 n (%)
Subjects with at least one prostacyclin-associated AE [1]: 6 n (%)
Prostacyclin-associated AE incidence: Diarrhoea [2]: 0 n (%)
Prostacyclin-associated AE incidence: Flushing [2]: 0 n (%)
Prostacyclin-associated AE incidence: Headache [2]: 1 (12.5) n (%)
Prostacyclin-associated AE incidence: Myalgia [2]: 0 n (%)
Prostacyclin-associated AE incidence: Nausea [2]: 0 n (%)
Prostacyclin-associated AE incidence: Pain in jaw [2]: 0 n (%)
Prostacyclin-associated AE incidence: Tension headache [2]: 0 n (%)
Prostacyclin-associated AE incidence: Vomiting [2]: 0 n (%)
Subjects with at least one prostacyclin-associated AE [2]: 1 (12.5) n (%)
Prostacyclin-associated AE incidence: Diarrhoea [3]: 1 n (%)
Prostacyclin-associated AE incidence: Flushing [3]: 1 n (%)
Prostacyclin-associated AE incidence: Headache [3]: 4 n (%)
Prostacyclin-associated AE incidence: Myalgia [3]: 1 n (%)
Prostacyclin-associated AE incidence: Nausea [3]: 1 n (%)
Prostacyclin-associated AE incidence: Pain in jaw [3]: 1 n (%)
Prostacyclin-associated AE incidence: Tension headache [3]: 1 n (%)
Prostacyclin-associated AE incidence: Vomiting [3]: 1 n (%)
Deaths [4]: 0 n (%)
Discontinuations due to prostacyclin-associated AEs [4]: 0 n (%)
Number of subjects with at least one Injection site reaction-AE (ISR-AE) [4]: 2 n (%)
Number of subjects with at least one Prostacyclin-associated AEs [4]: 7 n (%)
Number of subjects with at least one Serious adverse events (SAEs) [4]: 0 n (%)
SAE incidence: Blindness unilateral [4]: 0 n (%)
SAE incidence: Rhegmatogenous retinal detachment [4]: 0 n (%)
SAE incidence: Right ventricular failure [4]: 0 n (%)
PAH-related AE: peripheral edema (Period 3): 2 subjects
PAH-related AE: right ventricular failure in the context of respiratory tract infection (Period 3): 1 subject
subjects with PAH-related AEs (Period 3): 3 subjects
SAE incidence: Right ventricular failure (Period 3 (oral selexipag) + Follow-up, total, N = 20): 1 n (%)
Prostacyclin-associated AE incidence: Flushing [5]: 1 n (%)
Prostacyclin-associated AE incidence: Headache [5]: 1 n (%)
Prostacyclin-associated AE incidence: Nausea [5]: 1 n (%)
Prostacyclin-associated AE incidence: Flushing [6]: 0 n (%)
Prostacyclin-associated AE incidence: Headache [6]: 0 n (%)
Prostacyclin-associated AE incidence: Nausea [6]: 0 n (%)
Prostacyclin-associated AE incidence: Flushing [7]: 1 n (%)
Prostacyclin-associated AE incidence: Headache [7]: 1 n (%)
Prostacyclin-associated AE incidence: Nausea [7]: 1 n (%)
Deaths [8]: 0 n (%)
Discontinuations due to prostacyclin-associated AEs [8]: 0 n (%)
Number of subjects with at least one Injection site reaction-AE (ISR-AE) [8]: 0 n (%)
Number of subjects with at least one Prostacyclin-associated AEs [8]: 1 n (%)
Number of subjects with at least one Serious adverse events (SAEs) [8]: 2 n (%)
AE incidence: Blindness unilateral [9]: 1 n (%)
AE incidence: Chromaturia [9]: 1 n (%)
AE incidence: Cough [9]: 1 n (%)
AE incidence: Dyspnoea [9]: 1 n (%)
AE incidence: Flushing [9]: 1 n (%)
AE incidence: Headache [9]: 1 n (%)
AE incidence: Hypokalaemia [9]: 1 n (%)
AE incidence: Nasopharyngitis [9]: 0 n (%)
AE incidence: Nausea [9]: 1 n (%)
AE incidence: Oedema peripheral [9]: 1 n (%)
AE incidence: Rhegmatogenous retinal detachment [9]: 1 n (%)
AE incidence: Right ventricular failure [9]: 1 n (%)
AE incidence: Upper respiratory tract infection [9]: 1 n (%)
Subjects with at least one AE [9]: 6 n (%)
AE incidence: Blindness unilateral [10]: 0 n (%)
AE incidence: Chromaturia [10]: 0 n (%)
AE incidence: Cough [10]: 0 n (%)
AE incidence: Dyspnoea [10]: 0 n (%)
AE incidence: Flushing [10]: 0 n (%)
AE incidence: Headache [10]: 0 n (%)
AE incidence: Hypokalaemia [10]: 0 n (%)
AE incidence: Nasopharyngitis [10]: 1 (12.5) n (%)
AE incidence: Nausea [10]: 0 n (%)
AE incidence: Oedema peripheral [10]: 1 (12.5) n (%)
AE incidence: Rhegmatogenous retinal detachment [10]: 0 n (%)
AE incidence: Right ventricular failure [10]: 0 n (%)
AE incidence: Upper respiratory tract infection [10]: 0 n (%)
Subjects with at least one AE [10]: 2 (25.0) n (%)
AE incidence: Blindness unilateral (total, N = 20): 1 n (%)
AE incidence: Chromaturia (total, N = 20): 1 n (%)
AE incidence: Cough (total, N = 20): 1 n (%)
AE incidence: Dyspnoea (total, N = 20): 1 n (%)
AE incidence: Flushing (total, N = 20): 1 n (%)
AE incidence: Headache (total, N = 20): 1 n (%)
AE incidence: Hypokalaemia (total, N = 20): 1 n (%)
AE incidence: Nasopharyngitis (total, N = 20): 1 n (%)
AE incidence: Nausea (total, N = 20): 1 n (%)
AE incidence: Oedema peripheral (total, N = 20): 2 n (%)
AE incidence: Rhegmatogenous retinal detachment (total, N = 20): 1 n (%)
AE incidence: Right ventricular failure (total, N = 20): 1 n (%)
AE incidence: Upper respiratory tract infection (total, N = 20): 1 n (%)
Subjects with at least one AE (total, N = 20): 8 n (%)
PAH-related AEs (Periods 1 and 2): No PAH-related AEs
AE profile during treatment with i.v. selexipag (conclusion): consistent with the known safety profile of selexipag
tolerability of the switch from oral selexipag (Period 1) to i.v. selexipag (Period 2) and back to oral selexipag (Period 3) (conclusion): well tolerated
Deaths (whole study): No subject died
discontinued study treatment due to an AE (whole study): No subject
prostacyclin-associated AEs reported as severe, serious, or resulting in discontinuation of study treatment (whole study): None
